The values that follow come from patent US11304958B2, “Multidentate phenanthridine-containing ligand frameworks and their planar monofunctional platinum complexes for cancer treatment” (UNIVERSITY OF MANITOBA, priority 2018, dated 2022).

The subject of series [1] is A2780cis (cisplatin resistant) ovarian cancer cell line. As to the kind of experiment: MTT cytotoxicity assay, A2780cis ovarian cancer cells. It counts as cell-based, human. As to conditions: for resistance factor RF = IC50(A2780cis)/IC50(A2780): ovarian cancer cell lines, FIG. 14B. The text has this: (§1) In addition, neither the 4-aminophenanthridine precursors nor the proligands L1 or L2 themselves are effective in the absence of platinum(II). As noted above, intercalation enhances covalent binding and ultimately boosts the number of complex-DNA adducts observed for phenanthriplatin, but only when these two processes are simultaneous (30). Phenanthridines in general are anticipated to interact with DNA via an intercalation mechanism, similar to the mechanism of operation of the DNA stain ethidium bromide, of which phenanthridine forms the molecular core (19). […] The differing profile compared to cisplatin (i.e., higher in vitro efficacy and lower cross-resistance) implies a different mechanism of operation from cisplatin, which, considering to the planar structure of 1 and 2 compared to phenanthriplatin (10) likely involves some degree of intercalation. The higher efficacy for 2 (R═CF3) vs 1 (R=tBu) highlights the opportunity to fine-tune biological activity via ligand backbone substitution.
(§2) Cisplatin and phenanthriplatin were used as controls. Cancer and normal cells were treated for 72 h and cell viability was assessed.
(§3) In addition, neither the phenanthridinyl amines (2-R) nor the ligand itself (L2) are effective in the absence of platinum(II). While not wishing to be bound or limited to a particular theory or hypothesis, it is believed that substituted phenanthridines interact with DNA via an intercalation mechanism, similar to the mechanism of operation of the DNA stain ethidium bromide (19). […] The differing profile compared to cisplatin (i.e., higher in vitro efficacy and lower cross-resistance) implies a different mechanism of operation from cisplatin, which, considering to the planar structure of NNOPt compared to phenanthriplatin (10) likely involves some degree of intercalation. The higher efficacy for 2 (R═CF3) vs 1 (R=tBu) highlights the opportunity to fine-tune biological activity via ligand backbone substitution.
(§4) Cell line: A2780 (ovarian cells), A2780cis (ovarian cells, drug resistant)
(§5) RPMI medium: 10% FBS, 1% PS, 89% RPMI 1×, with L-glutamine
(§6) MTT (5 mg/MI Thiazolyl Blue tetrazolium bromide in PBS)
(§7) A volume of 100 μL of RPMI medium (10% FBS, 1% PS, 89% RPMI 1×, with L-glutamine) containing 2000 cells was seeded in each well of a 96-well microplate, and incubated for 24 h at 37° C. under 5% CO2. After 24 h, a volume of 50 μL of media containing the new compounds of different concentrations was added to the well. The drug-treated cells were incubated for 72 h at 37° C. with 5% CO2. A volume of 30 μL media containing MTT was added into each well, and incubated for 2-4 h at 37° C. with 5% CO2. MTT would be reduced to formazan in living cells.
(§8) Following this, the media were removed carefully by aspiration and 200 μL DMSO was added into each well. The DMSO is used to dissolve the insoluble formazan into a purple solution. The 96-well microplate with DMSO was then shaken for 10 min at room temperature. Final results were obtained by using a microplate reader to examine the absorbance at 562 nm. Analysis of the data was carried out using Origin™.
(§9) A2780 and A2780cis cell lines were cultured in RPM11640 with L-glutamine supplemented with 10% FBS and 1% PS. SKOV-3, MDA-MB-231, A549, and HEK293 cell line were cultured in DMEM 1 g/L glucose, with L-glutamine & sodium pyruvate supplemented with 10% FBS and 1% PS. MET5A cell line was cultured in M199 supplemented with 10% FBS, 1% PS, insulin, 0.1% Trace Elements B, […] Hydrocortisone, and 4 ng/mL EGF. All cell lines were incubated at 37° C. under an atmosphere containing 5% CO2. Cells were passaged by trypsinization and split in a 1:5 ratio.

Series [2] relates to A2780 (cisplatin sensitive) ovarian cancer cell line. As to the kind of experiment: MTT cytotoxicity assay, A2780 ovarian cancer cells. Type of series: cell-based, human. As to conditions: for IC50: 72 h; for in vitro cytotoxic activity in the absence of platinum(II): A2780 and A2780cis cell lines.
Description: as §1, §3, §4, §5, §6, §7, §8, §9

In the next series the test system is Human Cancer Cells. As to conditions: reportedly, ref. (9); cited from earlier work.
For series [3], the system named is non-cancerous mesothelial cell line MET-5A. As to the kind of experiment: Cytotoxicity screening against normal cells, MET-5A. It counts as cell-based, human. As to conditions: 72 h, compared with phenanthriplatin. As for the experimental part:
as §2, §7, §8
(§10) A2780 and A2780cis cell lines were cultured in RPM11640 with L-glutamine supplemented with 10% FBS and 1% PS. SKOV-3, MDA-MB-231, A549, and HEK293 cell line were cultured in DMEM 1 g/L glucose, with L-glutamine & sodium pyruvate supplemented with 10% FBS and 1% PS. […]

The test system of series [4] is non-cancerous kidney cell line HEK293. As to the kind of experiment: Cytotoxicity screening against normal cells, HEK293. As to conditions: 72 h, compared with phenanthriplatin. Type of series: cell-based, human. Here is the method:
as §2, §7, §8, §10

Setting [5] is: Homo sapiens, A2780cis, preliminary cytotoxicity data, MTT, 72 h, read-out: A2780cis IC50.
The mark [6] stands for this setting: Homo sapiens, A2780, preliminary cytotoxicity data.
Setting [7] is: preliminary cytotoxicity data, MTT, 72 h, read-out: A2780cis IC50.
Setting [8] is: further screening (FIG. 14A), treated for 72 h, read-out: IC50 in A2780cis cisplatin-resistant ovarian cancer cell line.

Read-outs that look alike come from different tables or passages of the source. Some results are limits rather than exact numbers.

On to `Nc1cc(C(F)(F)F)cc2c1ncc1ccccc12` [Complex 2-CF3, 2-trifluoromethyl-4-aminophenanthridine], for which the IC50 in series [1] (setting [5]) is greater than 100 µM; in series [2] (setting [6]) it was 19.3 ± 12.1 µM.
For `CC(C)(C)c1cc(N)c2ncc3ccccc3c2c1` [Complex 2-tBu, 2-tert-butyl-4-aminophenanthridine], the IC50 in series [1] (setting [5]) was 20.5 ± 6.07 µM; in series [2] (setting [6]), 8.38 ± 2.83 µM.
On to `CC(=O)C=C(C)Nc1cc(C(C)(C)C)cc2c1ncc1ccccc12` [Complex L1, 4-(2′-tert-butyl-4-aminophenanthridinyl)-3-penten-2-one], for which, in series [2], the “in vitro cytotoxic activity in the absence of platinum(II)” value is on record as “lack of activity”.
On to `CC(=O)C=C(C)Nc1cc(C(F)(F)F)cc2c1ncc1ccccc12` [Complex L2, 4-(2′-trifluoromethyl-4′-aminophenanthridinyl)-3-penten-2-one], for which the concentration for half-maximal inhibition (IC50) in series [1] (setting [7]) worked out at 20.1 ± 7.17 µM; in series [2] (preliminary cytotoxicity data), 7.22 ± 2.07 µM. The “in vitro cytotoxic activity in the absence of platinum(II)” value in series [2] is reported as “lack of activity”.
Regarding `N.N.[Cl][Pt][Cl]` [cisplatin, cis-diaminedichloroplatinum(II), reference compound], the half-maximal inhibitory concentration (IC50) turned out to be 32.9 ± 8.82 µM in series [1] (setting [8]), 7.76 ± 0.497 µM in series [1] (setting [7]) and 0.375 ± 0.217 µM in series [2] (preliminary cytotoxicity data). Further, the “resistance factor RF = IC50(A2780cis)/IC50(A2780)” value in series [1] was 23.
`N.N.O=[N+]([O-])[O-].[Cl][Pt+].c1ccc2c(c1)cnc1ccccc12` [phenanthriplatin, [c/s-R(NH3)2(phenanthridine)Cl][NO3], reference compound]: the “resistance factor RF = IC50(A2780cis)/IC50(A2780)” value in series [1] is given as 2.7.
In the case of `N.N.O=[N+]([O-])[O-].[Cl][Pt+].c1ccncc1` [pyriplatin, [c/s-R(NH3)2(pyridine)Cl][NO3]], the “potency relative to cisplatin or oxaliplatin” value with Human Cancer Cells was “ten-fold less potent”.
For “[Pt(CF3-phenanthridinenacac)Cl] [Complex 2]”, the “toxicity against normal cells (MET-5A)” value in series [3] is “less toxic than phenanthriplatin”. Further, the “IC50 times lower than that of cisplatin” value in series [1] (A2780cis, 72 h) was 58 times. The results for the 50% inhibitory concentration (IC50) in series [1] (setting [8]), in series [1] (setting [7]) and in series [2] (preliminary cytotoxicity data) were 0.55 ± 0.22 µM, 0.955 ± 0.106 µM and 0.341 ± 0.112 µM, respectively. In addition, in series [1], the “resistance factor RF = IC50(A2780cis)/IC50(A2780)” value came out at 1.1. The “toxicity against normal cells (HEK293)” value in series [4] is “less toxic than phenanthriplatin”.
For the compound “[Pt(tBu-phenanthridine-nacac)Cl] [Complex 1]”, the IC50 in series [1] (setting [7]) came out at 4.57 ± 1.41 µM; in series [2] (preliminary cytotoxicity data), 2.81 ± 0.168 µM.
